The values below come from ChEMBL document CHEMBL4715829, “Heterodimeric Rifampicin-Tobramycin conjugates break intrinsic resistance of Pseudomonas aeruginosa to doxycycline and chloramphenicol in vitro and in a Galleria mellonella in vivo model” (Eur J Med Chem, 2019).

One may read the mortality as the share of the test organisms that died.

The nature of series [1]: Cytotoxicity against human HepG2 cells assessed as cell viability at 12 uM incubated for 48 hrs by prestoblue assay. Format: cell-based. The following applies: read-out: Activity.
Series [2] is described as follows: Cytotoxicity against human HEK293 cells assessed as cell viability at 12 uM incubated for 48 hrs by prestoblue assay. The series is classed as cell-based. The following applies: read-out: Activity.
A short description of series [3]: Toxicity in Galleria mellonella larvae assessed as larval […] at 100 mg/kg measured after 24 hrs. Format: organism-based. The following applies: in vivo.
Another series relates to Pseudomonas aeruginosa. Nature of the series: Antibacterial activity against Pseudomonas aeruginosa 260-97103 infected in Galleria mellonella larvae assessed as survival of larvae up to 50 mg/kg measured after 24 hrs relative to control. As to conditions: dose mg/kg <=50, time 24.0 hrs. Format: functional, organism-based.

As for `COc1cccc2c1C(=O)c1c(O)c3c(c(O)c1C2=O)C[C@@](O)(C(=O)CO)C[C@@H]3O[C@H]1C[C@H](N)[C@H](O)[C@H](C)O1` [DOXORUBICIN], the viability at 48 h, 12 µM in series [1] and in series [2] was below 10% in each case. `C[C@@H](O)[C@H]1C(=O)N2C(C(=O)O)=C(S[C@@H]3CN[C@H](C(=O)N(C)C)C3)[C@H](C)[C@H]12` [MEROPENEM]: in series [3], the mortality at 24 h was 100%. Turning to COLISTIN, the Survival in the series on Pseudomonas aeruginosa is above 50%.
